Data taken from ChEMBL document CHEMBL1156829 (Proc Natl Acad Sci U S A, 2008).

Experiments:
[1] = NOVARTIS: Cytotoxicity against human hepatocellular carcinoma cell line (Huh7); format: toxicity, cell-based, Huh-7; settings: Huh7 cells (hepatocellular carcinoma cell line)
Plasmodium falciparum [2] = assay: NOVARTIS: Inhibition of Plasmodium falciparum W2 (drug-resistant) proliferation in erythrocyte-based infection assay; format: functional, organism-based; settings: Plasmodium falciparum, W2; read-out: EC50
Plasmodium falciparum [3] = assay: NOVARTIS: Inhibition of Plasmodium falciparum 3D7 (drug-susceptible) proliferation in erythrocyte-based infection assay; format: functional, organism-based; settings: Plasmodium falciparum, 3D7

| SMILES | CC50 [1] [nM] | EC50 (Plasmodium falciparum [2]) [nM] | EC50 (Plasmodium falciparum [3]) [nM] |
| --- | --- | --- | --- |
| CCN1/C(=C/c2sc3ccc(Br)cc3[n+]2CC)C=Cc2ccccc21 | > 10000 | 1080 | 645 |
| COc1ccc(C=NNc2nc(O)cc(-c3ccccc3)n2)cc1OC | > 10000 | > 1100 | 632 |
| COc1ccc(CCN2CCC(NCc3cccc(N(C)C)c3)CC2)cc1 | > 10000 | 1060 | 806 |
| CCOC(=O)c1c(NC(=O)CSc2nnc(CNC(=O)c3cccc(C)c3)n2Cc2ccccc2)sc2c1CCCC2 | > 14000 | > 1460 | > 1090 |
| COC(=O)c1ccc(C(=O)Nc2ccc(-c3nc4cc(NC(=O)c5ccc(C(=O)OC)cc5)ccc4[nH]3)cc2)cc1 | > 10000 | 1090 | 855 |
| CCOC(=O)c1sc(NC(=O)CSc2nnc(CNC(=O)c3ccco3)n2-c2ccc(F)cc2)c(C(=O)OCC)c1C | > 10000 | > 1060 | > 1250 |
| C=CCC1(Nc2ccccc2)CCCCC1 | > 10000 | > 1050 | > 1250 |
| CC(C)OC(=O)NC(Nc1ccccc1)C(Cl)(Cl)Cl (stereo not given) | > 10000 | > 1080 | > 1080 |
| O=C(Nc1nccs1)c1cc(-c2cccnc2)nc2ccc(Br)cc12 | > 100000 | > 10400 | 1080 |
| c1ccc2c(NCCc3c[nH]cn3)c3ccccc3nc2c1 | 23300 | 2460 | 1730 |
| CC(=NO)c1ccc2c(c1)C(C)(C)CCC2(C)C | 37100 | 3900 | 3510 |
| COc1ccc(Cn2c(=S)[nH]c3ccsc3c2=O)cc1 | > 10000 | 1100 | > 1430 |
| O=C(NCc1ccccc1)c1cnc(NCCCn2ccnc2)nc1NCC1CCCCC1 | > 10000 | 1040 | 311 |
| CC[n+]1c(C=C2C=CN(c3ccc(Cl)cc3)C=C2)ccc2ccccc21 | > 10000 | 1090 | 725 |
| CCC(C)NC(=O)CSc1nnc(-c2cccnc2)n1-c1ccc(Cl)cc1 (stereo not given) | > 10000 | > 1090 | > 1520 |
| CN(CCCNc1ccnc2cc(Cl)ccc12)C(=O)c1cccc(C(F)(F)F)c1 | > 2550 | 278 | 85.1 |
| Cc1ccc(CNC(=O)c2cc(=O)[nH]c3ccc(S(=O)(=O)N4CCOCC4)cc23)cc1 | > 10000 | > 1090 | 1430 |
| COc1cc(NC(C)CCCN(Cc2ccc(OC)c(OC)c2)C(=O)CC(C)CC(C)(C)C)c2ncccc2c1 (stereo not given) | 5890 | 640 | 1040 |
| CN1CCN(C(c2ccco2)c2sc3ncnn3c2O)CC1 (stereo not given) | > 10000 | 1080 | > 1250 |
| CN(C)c1ccc(NC(=O)c2cccnc2C(=O)O)cc1 | 7840 | 841 | 320 |
| CCCCCN(C(=O)c1ccc(C)cc1)C(CC)c1nc2ccccc2c(=O)n1-c1ccccc1OC (stereo not given) | > 10000 | 1070 | 893 |
| O=C(NCCCCNc1ccnc2cc(Cl)ccc12)c1ccco1 | > 13100 | 1400 | 723 |
| COc1ccccc1N(CC(=O)N1CCCCC1)S(=O)(=O)c1ccccc1 | > 10000 | > 1070 | > 1250 |
| COc1cccc2cc(-c3csc(NC(=O)CCC(=O)NC4CCCC4)n3)c(=O)oc12 | > 10000 | > 1070 | > 1250 |

| SMILES | CC50 [1] [nM] | EC50 (Plasmodium falciparum [2]) [nM] | EC50 (Plasmodium falciparum [3]) [nM] |
| --- | --- | --- | --- |
| COc1cc(/C=C/c2nc(O)nc(O)c2[N+](=O)[O-])cc(Br)c1O | > 9110 | > 987 | > 1250 |
| CCCCCCN(C(=O)Nc1cccc(C#N)c1)C(CC)c1nc2ccccc2c(=O)n1CCC(=O)OC (stereo not given) | > 10000 | 1070 | 979 |
| Cc1ccc(CN2C[C@H](n3cnnn3)C[C@H]2C(=O)NCCc2cccc(Cl)c2)c(C)c1 | > 10400 | 1120 | 1320 |
| COc1ccc2c(c1OC)C(=O)N(c1ncc(C)s1)C2 | > 10000 | > 1080 | > 1250 |
| CCCCCCOc1ccc(C(C)=NNC2=NCCN2)cc1[N+](=O)[O-] | 7320 | 791 | 228 |
| COc1cc(C=NNc2nc3cc(Cl)ccc3[nH]2)cc(OC)c1OC | > 10000 | 1080 | 904 |
| COc1ccccc1NC(=O)C(=O)NCCc1ccc(OC)c(OC)c1 | > 100000 | > 10800 | > 10300 |
| CCCCCN1/C(=C\C=C\c2n(CCCCC)c3cc(Cl)c(Cl)cc3[n+]2CC)N(CC)c2cc(Cl)c(Cl)cc21 | > 10000 | > 1060 | > 1300 |
| CCC(c1nc2ccccc2c(=O)n1-c1cccc(Cl)c1)N(CCc1ccccc1)C(=O)c1ccc(F)cc1 (stereo not given) | 656 | 69 | 267 |
| O=C1C(Cc2ccccc2)N=C2c3ccccc3N=C(SCc3ccc(Cl)cc3)N12 (stereo not given) | > 10000 | > 1050 | > 1250 |
| COc1ccccc1Cn1c(SCc2ccc(Cl)cc2)nc2ccc(Br)cc2c1=O | > 10000 | > 1050 | > 1160 |
| Cc1oc2c(c1C(=O)N1CCCC1)C(=O)c1ccccc1C2=O | 9860 | 1050 | 2370 |
| O=C(Nc1ccc(F)c(F)c1)c1ccccc1[N+](=O)[O-] | > 10000 | 1060 | > 903 |
| Cc1ccc(-c2nc3cc(NC(=O)c4ccc(Cl)cc4Cl)ccc3o2)cc1 | > 10000 | > 1050 | > 864 |
| Cc1ccc(-c2ccc(C#N)c(OCC(=O)NCCc3ccccc3)n2)c(C)c1 | > 10000 | > 1060 | > 1250 |
| COc1cc(NC(=O)/C=C/c2ccccc2Cl)cc(OC)c1OC | > 10000 | 1060 | 862 |
| CCCCCc1ccc(-c2ccc(/C(C=[N+](C)C)=C\N(C)C)cc2)cc1 | > 10000 | 1050 | 606 |
| CC(=O)Nc1ccccc1-c1nnn(CC(N)=O)n1 | > 100000 | > 10400 | > 10500 |
| O=C(c1cc([N+](=O)[O-])cc([N+](=O)[O-])c1)N1CCN(c2cccc(C(F)(F)F)c2)CC1 | > 10000 | 1100 | 1180 |
| Cn1cc([N+](=O)[O-])c(C(=O)NN=Cc2c[nH]c3ccccc23)n1 | > 10000 | 1100 | 1940 |
| Cc1c2ccccc2c(-c2ccccc2)c2ccccc12 | 6000 | 626 | 1230 |
| COC(=O)c1c(-c2c(Cl)cccc2Cl)noc1C=CNc1ccc(Cl)cc1 | > 100000 | 10500 | > 1790 |
| COc1ccccc1-n1c(/C=C/c2cc(Br)ccc2O)nc2ccccc2c1=O | > 10000 | > 1050 | > 1250 |
| c1ccc(-c2ccc(CNc3ccc4cn[nH]c4c3)cc2)cc1 | > 10000 | 1040 | > 1250 |

| SMILES | CC50 [1] [nM] | EC50 (Plasmodium falciparum [2]) [nM] | EC50 (Plasmodium falciparum [3]) [nM] |
| --- | --- | --- | --- |
| O=C(CCC1CCCN(C(=O)c2ccsc2)C1)N1CCN(c2ccccn2)CC1 (stereo not given) | > 10000 | > 1100 | > 1250 |
| COc1cc2nc(C3CCC3)n(NC(=O)c3cccc(F)c3)c(=O)c2cc1OC | > 10000 | > 1060 | > 1250 |
| CN1CCCC(CNC(=O)c2cnn(-c3ncc4c(n3)-c3ccccc3SC4)c2C2CC2)C1 (stereo not given) | > 10000 | 1100 | 976 |
| Cc1cccc(NC(=O)c2ccc3ccccc3n2)n1 | > 10000 | > 1090 | > 547 |
| Cc1ccccc1NC(c1cccc(Cl)c1)c1nnnn1C1CCCCC1 (stereo not given) | > 10000 | > 1070 | > 1720 |
| Cc1ccc2nc(-c3ccccc3)cc(C(=O)Nc3ccc(Cl)cc3)c2c1 | > 10000 | 1040 | > 1610 |
| COc1ccccc1C(c1c(C)n[nH]c1O)c1c(C)n[nH]c1O | > 10000 | > 1100 | > 1250 |
| CCOC(=O)c1cnc2c(C)c3[nH]c(C)c(C)c3cc2c1O | > 10000 | 1070 | > 1310 |
| C=CCNC(=O)c1ccc2c(c1)N=C(/C=C/c1ccccc1)N(CCc1cccc(OC)c1)C2 | > 10000 | 1040 | 1340 |
| COc1ccc(/C=C2\SC(=N)N(c3ccc4c(c3)OCO4)C2=O)cc1OC | > 10000 | > 1060 | > 1720 |
| COc1cc2c3cc1Oc1c(OC)c(OC)cc4c1C(Cc1ccc(O)c(c1)Oc1ccc(cc1)CC3N(C)CC2)N(C)CC4 (stereo not given) | > 10000 | 1060 | 997 |
| Cc1cccc(NC(=O)Nc2cccnc2)c1NC(=O)Nc1cccnc1 | > 10000 | > 1050 | > 1250 |
| C=CCSc1nn2c(=O)c(C)nnc2s1 | > 10000 | 1080 | > 1620 |
| CCOC(=O)N1CCC(NC(=O)CSCc2nc(-c3cccc(OC)c3)oc2C)CC1 | > 10000 | > 1080 | > 1250 |
| O=C(/C=C/c1ccc(Br)cc1)NC(=O)c1ccccc1O | > 10000 | 1090 | > 1250 |
| CCOc1ccc(-c2cn3c([n+]2Cc2ccccc2)SCCC3)cc1 | > 10000 | 1090 | 648 |
| Cc1cc(-c2cnc(N3CCCC3)nc2C2CCN(Cc3cccnc3)CC2)on1 | > 10000 | > 1090 | 190 |
| CC(C)(C)C(/C=C/c1ccc(Cl)cc1Cl)n1nnnc1C1(Nc2ccc(Cl)cc2)CCCCC1 (stereo not given) | > 10000 | > 1050 | > 1250 |
| O=[N+]([O-])c1cc([N+](=O)[O-])c2cccnc2c1Nc1cccc2cccnc12 | 59900 | 6440 | 8040 |
| CCN(CC)CCCC(C)NC(=O)CSc1nc2ccccc2c(=O)n1-c1cccc(Cl)c1 (stereo not given) | > 10000 | > 1070 | > 1250 |
| COCCCNC(=O)/C=C/c1ccc(C(C)C)cc1 | > 13500 | 1490 | 1050 |
| N#Cc1c(NC(=O)COc2ccc(F)cc2F)sc2c1CCC2 | > 10000 | > 1070 | > 1250 |
